Data set [1] concerns lhx1a, pax2a, pax8, ntla transcripts. Briefly: Relative qPCR in the trunk region of 10-somite embryos. To be noted: 3 μM. Type of data set: in vivo, zebrafish. An excerpt: Conducted as described in WO 2012109527 and in priority U.S. provisional Patent Application No. 61/720,621.
(Quantitative PCR measures a nucleic acid by following its amplification.)

For the next data set, the system named is histone H4 acetylation. Briefly: Histone H4 hyperacetylation Western blot in embryos. The data set is classed as in vivo, zebrafish. To be noted: 24 hpf embryos treated 6 hours; 3 μM PTBA, 25 μM PBA, 200 nM TSA. As to the method:
It was next determined whether the HDACi function of PTBA was quantifiable in vivo. 24 hpf embryos were treated with 3 μM PTBA, 25 μM PBA, or 200 nM TSA for 6 hours. Protein extracts were prepared and immunoblotted with an anti-hyperacetylated histone H4 antibody. […] Furthermore, increasing the compound concentration caused a corresponding increase in hyperacetylation (FIG. 21).
SDS-PAGE and Western blotting were performed as described previously with some modifications (Noel, E. S. et al. Organ-specific requirements for Hdac1 in liver and pancreas formation. Dev Biol 322, 237-250, (2008)). Proteins were separated on 18% SDS-PAGE gels. Membranes were incubated at 4° C. overnight with 1:1000 anti-hyperacetylated histone H4 antibody (06-946, Millipore) or 1:1000 anti-α-tubulin antibody (Sigma-Aldrich) in PBT containing 5% nonfat milk.
Background: Immunoblotting shows a protein as a band on a membrane.

The test system of data set [2] is conditionally-immortalized mouse podocyte cell line. In words: Podocyte cytotoxicity assay (Cell Titer-Blue). Particulars: 72 hours, up to 30 μM. For orientation: Resazurin is reduced to fluorescent resorufin, in cell work by metabolically active cells.
Method: For the purposes of these experiments, they function as an indicator of renal toxicity. Following 72 hours of treatment with each compound concentrations ranging from 30 μM to 3 nM, podocyte viability was assessed by measuring residual metabolic activity (FIG. 30).
Mouse podocytes were plated at a density of 6,000 cells per 200 μl in 96-well plates to elicit log-phase growth. The indicated PTBA analogs were added at 30 μM, 10 μM, 1 μM, 300 nM, 100 nM, 30 nM, or 3 nM and incubated at 33° C. for 72 hours. The final DMSO concentration was maintained at 0.2% in all treatments except 30 μM (0.6%). After incubation, cytotoxicity was analyzed using the Cell Titer-Blue Cell Viability Assay (Promega) per manufacturer's instructions. Reagent (20 μl) was added to 100 μl of cells and plates were incubated for 2 hours at 37° C. Fluorescence was read at 79 560Ex/590Em on a Gemini SpectramaxXS (Molecular Devices) plate reader. Viability was calculated as a percentage of the DMSO control, which was considered 100% viability. Data represent the results of three independent experiments using duplicate wells for each condition. E50 values were determined from the transformed and normalized data by non-linear regression.
For data set [3], the system named is pax2a, pax8 expression (kidney field). In words: In situ hybridization for renal progenitor markers pax2a, pax8 / kidney field. The data set is classed as in vivo, zebrafish. Here is the method: (§1) PTBA was synthesized as described below. Hydroxyurea and aphidicolin were obtained from Sigma-Aldrich.
(§2) In situ hybridization and immunocytochemistry: In situ hybridization was performed as previously described with some modifications. 142 Hybridization temperature was 65° C. Embryos were blocked in 2% blocking reagent (Roche) with 5% sheep serum in MAB (100 mM maleic acid and 150 mM NaCl [pH 7.5]). Whole-mount immunocytochemistry with 1:25 mouse anti-α6F antibody (Developmental Studies Hybridoma Bank) and 1:100 Cy3 secondary antibody (Jackson ImmunoResearch) was performed as described previously. 108 Embryos were embedded in JB-4 for sectioning per the manufacturer's instructions (Polysciences), sectioned at 5 μm, and mounted with Cytoseal 60 (Richard-Allan Scientific).

The test system of the next data set is cyp26a1, cmlc2. In words: In situ hybridization for RA-responsive genes in 18-somite embryos. Type of data set: in vivo, zebrafish. Particulars: 3 μM. As to the method: as §2
HDACis are believed to lower the threshold of RA necessary to activate transcription. If PTBA treatment facilitates activation of the RA pathway, then expression of genes responsive to RA signaling should change. […] In a previous study, cmlc2 expression was assessed for RAdependent effects in 18-somite embryos (Keegan, B. R., Feldman, J. L., Begemann, G., Ingham, P. W. & Yelon, D. Retinoic acid signaling restricts the cardiac progenitor pool. Science 307, 247-249, (2005)), therefore embryos were collected at the 18-somite stage for continuity. […]

The test system of the next data set is pronephros. Briefly: Pronephric markers at 48 hpf (cdh17, NaK-ATPase, wt1a, slc4a4, slc12a1). The data set is classed as in vivo, zebrafish. To be noted: 3 μM. As to the method: as §1, §2
The subject of data set [4] is BALB/c mice, severe IR-AKI. Briefly: Severe ischemia-reperfusion AKI (IR-AKI). Particulars: 7 days at 50 mg/ml starting 24 hrs after severe IR. The data set is classed as in vivo, mouse. Here is the method: Surgeries were performed on a water-bath heated platform at 38° C. on 10-12 week old male BALB/c mice. For moderate IR-AKI, mice underwent a right nephrectomy followed by left renal pedicle clamping (800 μm pressure clamp, FST 18052-03). The clamp was released after 26 minutes, and tissue reperfusion was confirmed before completing the surgery. Mice were treated daily with indicated doses of compounds or equivalent volume of 20% 2-hydroxypropyl-β-cyclodextrin in water as vehicle control starting 24 h after injury. Since initial injury with this model is variable, mice were randomly allocated vehicle or m4PTB treatment if their serum creatinine levels were 0.8 to 1.2 mg/dl 24 h post IR injury. Other mice were excluded from further analysis and euthanized. To induce severe IR-AKI, mice underwent left renal pedicle clamping for 30 minutes and delayed contralateral nephrectomy was performed after 8 days.
For mouse studies, kidney sections were stained using Periodic Acid-Schiff (PAS) to assess renal tubular injury. Tubular injury (casts, dilated tubules, epithelial cell blebbing, and vacuolization, loss of brush borders or nuclei) was scored as described. Sirius red staining was performed using an established protocol used to evaluate renal fibrosis/collagen accumulation in kidney sections. To quantify Sirius red staining we used an Olympus BX-41 microscope equipped with an Olympus DP-72 digital camera system and polarizing light filter. Results are expressed as the mean percent fibrosis for all of the images per slide region (Sirius red positive/total surface area).
We used of 2-hydroxypropyl-β-cyclodextrin (CD, Sigma), a low toxicity drug formulation vehicle that has been well characterized and used extensively as a hydrophobic drug delivery vehicle. We could achieve concentrations of up to ˜12 mg/ml of PTBA analogues in 20% CD in water (100 mg/kg in volumes of ˜150-250 μl), and daily IP injections with 200 μl 20% CD in water had no effect on renal functional recovery following IR-AKI. Therefore all studies were performed using compounds dissolved in 20% CD. To assess dosing and biological activity of PTBA analogues in mice, CD1 mice were injected with varying doses of compounds IP and kidneys isolated at different time point for histone extraction and analysis of histone H4 acetylation, a marker of HDAC inhibitor activity, as outlined below. Based on results of these studies, mice were treated daily with 1, 10, 50 or 100 mg/kg of compound or equivalent volume of 20% CD vehicle control starting 24 h after injury.
˜30 μl blood was obtained by tail vein bleed at different time points, and serum samples frozen after confirming that they had not undergone hemolysis (which interferes with enzymatic analysis for serum creatinine). Serum creatinine was evaluated in duplicate samples using a commercially available enzymatic cascade assay (Pointe Scientific, requires only ˜7 μl of serum). […] Blood Urea Nitrogen (BUN) was determined in duplicate samples using a colorimetric enzymatic assay kit (Infinity Urea, Thermo Scientific), and spot urinary albumin/creatinine ratios determined using a mouse albumin ELISA and urinary creatinine assay kit (Albuwell and Creatinine Companion, Exocell).
Compounds 22, 25, 29, 36, and 186 were injected for 7 days at […] starting 24 hrs after severe IR treatment. […] Fibrotic (scar) tissue was measured using Sirus Red after 28 days for various markers of fibrosis.

Here are results for two compounds from patent publication US10233201B2, “Class of HDAC inhibitors expands the renal progenitor cells population and improves the rate of recovery from acute kidney injury” (University of Pittsburgh—Of the Commonwealth System of …, priority 2012, dated 2019).

Molecules are shown by their SMILES.

Regarding `O=C(O)CCCSc1ccccc1` [PTBA, 4-(phenylthio)butanoic acid], in data set [1], the “increase in ntla expression (qPCR)” value is 80%, the “increase in pax8 expression (qPCR)” value stood at 50%, the “lhx1a relative transcript (qPCR)” value was “three-fold increase” and the “pax2a expression (qPCR)” value was “almost two-fold increase”. For the same compound, in the data set on histone H4 acetylation, the “histone H4 hyperacetylation” value is “hyperacetylation was observed”. The “podocyte viability (% of DMSO control)” value in data set [2] is at least 50%. In data set [3] (3 μM, 10-somite embryos), the “embryos with expanded pax2a expression” value is listed as 95%. Moreover, the “pax2a expression at 24 hpf” value in data set [3] (3 μM, treatment begun at 16.5 hpf (15 somites)) is on record as “no kidney field expansion”. Also, the “pax2a expression at 24 hpf” value in data set [3] (3 μM, treatment initiated between 2 hpf and 14 hpf (10 somites)) was “expanded pax2a expression”. For the same compound, the “effect on size of the kidney field / renal markers (in situ hybridization)” value in data set [3] (screen hits, data not shown) is on record as “appeared to expand the expression of some renal markers”. In the data set with cyp26a1, cmlc2, the “embryos with decreased cmlc2 expression” value was found to be 100% and the “embryos with increased cyp26a1 expression” value came out at 100%. For the same compound, in the data set with pronephros, the “embryos with expansion of cdh17” value stood at 89%, the “expansion of slc4a4” value was determined as 92%, the “expansion of slc12a1” value is reported as 64% and the “expansion of wt1a” value was 74%.

Turning to `COC(=O)CCCSc1ccccc1` [UPHD-00025, methyl 4-(phenylsulfanyl) butanoate], in data set [4], the “fibrosis after 28 days (Sirus Red, markers of fibrosis)” value is reported as “most reduction in fibrosis” and the “serum creatinine at day 9” value is “better activity”.
